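Briefly, cells in 96-well plates were exposed to five compound concentrations for 48 h, and endpoints were estimated by linear interpolation. GI50 marks 50% less growth. At the TGI there is no net growth.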
Experiments:
Test in all cases: NCI tumour cell line growth inhibition, 48 h
UACC-257 melanoma = system: UACC-257 melanoma
EKVX NSCLC = system: EKVX NSCLC
HCT-116 colon = system: HCT-116 colon
SR leukemia = system: SR leukemia
NCI-H460 lung = system: NCI-H460 lung
HL-60(TB) leukemia = system: HL-60(TB) leukemia
786-0 renal = system: 786-0 renal
OVCAR-8 ovarian = system: OVCAR-8 ovarian
ACHN renal = system: ACHN renal
SNB-19 CNS = system: SNB-19 CNS

| Compound | TGI (UACC-257 melanoma) | TGI (EKVX NSCLC) | TGI (HCT-116 colon) | TGI (SR leukemia) | TGI (NCI-H460 lung) | TGI (HL-60(TB) leukemia) | TGI (786-0 renal) | TGI (OVCAR-8 ovarian) | TGI (ACHN renal) | TGI (SNB-19 CNS) | GI50 (UACC-257 melanoma) | GI50 (EKVX NSCLC) | GI50 (HCT-116 colon) | GI50 (SR leukemia) | GI50 (NCI-H460 lung) | GI50 (HL-60(TB) leukemia) | GI50 (786-0 renal) | GI50 (OVCAR-8 ovarian) | GI50 (ACHN renal) | GI50 (SNB-19 CNS) |
| --- | --- | --- | --- | --- | --- | --- | --- | --- | --- | --- | --- | --- | --- | --- | --- | --- | --- | --- | --- | --- |
| COc1cc(C=C2C(=O)OC(C)(C)OC2=O)cc(OC)c1OC | > 100 µM | > 100 µM | > 100 µM | > 100 µM | > 100 µM | > 100 µM | > 100 µM | > 100 µM | > 100 µM | > 100 µM | – | – | – | – | – | – | – | – | – | – |
| CCCCCCCC(=O)SCC/C=C/[C@@H]1CC(=O)NCc2cccc(n2)CN(Cc2ccc(Cl)cc2)CC(=O)N[C@@H](C(C)C)C(=O)O1 | 70.4 µM | > 100 µM | 15.6 µM | > 100 µM | > 100 µM | > 100 µM | > 100 µM | > 100 µM | 49.8 µM | > 100 µM | 8.99 µM | 17.8 µM | 4.23 µM | 3.64 µM | 5.45 µM | 23.1 µM | 22 µM | 9.1 µM | 6.44 µM | 22.6 µM |
| Cn1c(=O)c(C2c3ccccc3Oc3c2c(=O)n(C)c2ccccc32)c(O)c2ccccc21 (stereo unspecified) | 73.7 µM | > 100 µM | > 100 µM | > 100 µM | > 100 µM | 79.2 µM | > 100 µM | > 100 µM | > 100 µM | > 100 µM | – | – | – | – | – | – | – | – | – | – |
| COC(=O)CC[C@@H](NC(=O)C(C)NC(=O)COC1C(O)C(COC(=O)CCCCCCCCCCNC(=O)c2ccc([N+](=O)[O-])c3[nH]c4cc(Br)ccc4c(=O)c23)OC(OCc2ccccc2)C1NC(C)=O)C(N)=O (stereo partly specified) | > 100 µM | > 100 µM | > 100 µM | > 100 µM | > 100 µM | 51.4 µM | > 100 µM | > 100 µM | > 100 µM | > 100 µM | – | – | – | – | – | – | – | – | – | – |
| O=C(O)C(=O)/C=C\c1ccc(Cl)cc1 | > 100 µM | > 100 µM | > 100 µM | > 100 µM | > 100 µM | > 100 µM | > 100 µM | > 100 µM | > 100 µM | > 100 µM | – | – | – | – | – | – | – | – | – | – |
| CCCCc1c2c(nc3c1CCc1cc(C=O)c(N)nc1-3)/C(=C/c1ccccc1)CCC2 | > 100 µM | > 100 µM | > 100 µM | > 100 µM | > 100 µM | > 100 µM | > 100 µM | > 100 µM | > 100 µM | > 100 µM | – | – | – | – | – | – | – | – | – | – |
| NS(=O)(=O)OC[C@H]1O[C@@H](n2cnc3c(N[C@H]4CCc5ccccc54)ncnc32)[C@H](O)[C@@H]1O | 0.577 µM | 9.07 µM | 0.114 µM | > 52.6 µM | 2.11 µM | 1.44 µM | 0.373 µM | 1.02 µM | 0.57 µM | 2.05 µM | 0.213 µM | 0.349 µM | 0.0213 µM | 0.0368 µM | 0.408 µM | 0.0482 µM | 0.0799 µM | 0.0865 µM | 0.167 µM | 0.0902 µM |
| O=C(/C=C(\O)C(=O)O)/C=C(\O)c1ccc(Cl)cc1 | > 100 µM | > 100 µM | > 100 µM | > 100 µM | > 100 µM | > 100 µM | > 100 µM | > 100 µM | > 100 µM | > 100 µM | – | – | – | – | – | – | – | – | – | – |
| COc1ccc(/C(C#N)=C/c2nc3c(N4CCOCC4)nc(Cl)nc3n2C)cc1OC | 2.87 µM | 2.76 µM | 1.47 µM | 3.68 µM | 1.99 µM | < 0.0112 µM | 1.61 µM | 3.97 µM | 1.25 µM | 2.91 µM | 1.29 µM | – | < 0.01 µM | < 0.01 µM | < 0.01 µM | < 0.01 µM | < 0.01 µM | < 0.01 µM | < 0.01 µM | < 0.01 µM |
| N#CC1=C(N)NC(=S)NC1c1ccc(-c2ccc(-c3nc4ccccc4s3)cc2)o1 (stereo unspecified) | > 50 µM | > 50 µM | 31.8 µM | 25.7 µM | 25.2 µM | > 50 µM | > 50 µM | > 50 µM | > 50 µM | > 50 µM | 36.9 µM | > 50 µM | 13 µM | 11.3 µM | 10.4 µM | 30.7 µM | > 50 µM | 35.1 µM | 28.1 µM | > 50 µM |
| Cc1cc(CC(O)(C(F)(F)F)C(F)(F)F)cc(CC(O)(C(F)(F)F)C(F)(F)F)n1 | 8.65 µM | 10.8 µM | 6.09 µM | 15.1 µM | 4.2 µM | 7.85 µM | 6.66 µM | 12.4 µM | 8.29 µM | > 100 µM | – | – | – | – | – | – | – | – | – | – |
| NC(=O)NC1=NCCC(=O)N1CCc1c[nH]c2ccccc12 | 34.6 µM | 48.6 µM | 26.4 µM | 57.3 µM | 39.5 µM | 42.5 µM | > 100 µM | 32.2 µM | 65.1 µM | 54.6 µM | – | – | – | – | – | – | – | – | – | – |
| C=CC[n+]1c(/C=C2\Sc3ccccc3N2C)sc(-c2ccccc2)c1-c1ccccc1 | 0.737 µM | 12.9 µM | 11.5 µM | 1.87 µM | 11.4 µM | 0.665 µM | 11.1 µM | 10.9 µM | 10.2 µM | 15.1 µM | 0.239 µM | 0.478 µM | 0.36 µM | 0.353 µM | 0.284 µM | 0.241 µM | 0.419 µM | 0.338 µM | 1.7 µM | 0.375 µM |
| COC1=C(C(=O)OC(C)(C)C)C23CCCCC2(C(C(=O)OC(C)(C)C)=C(OC)C3C(=O)OC(C)(C)C)C1C(=O)OC(C)(C)C (stereo unspecified) | > 100 µM | > 100 µM | > 100 µM | > 100 µM | > 100 µM | 63.1 µM | > 100 µM | > 100 µM | > 100 µM | > 100 µM | – | – | – | – | – | – | – | – | – | – |
| NNC(=S)N/N=C(\c1nc2ccc(Cl)cc2[nH]c1=O)C(O)c1ccc(Cl)cc1Cl (stereo unspecified) | > 100 µM | > 100 µM | > 100 µM | > 100 µM | > 100 µM | > 100 µM | > 100 µM | > 100 µM | > 100 µM | > 100 µM | – | – | – | – | – | – | – | – | – | – |
| Nc1ccc(Cl)cc1.Nc1ccc(Cl)cc1.Nc1ccc(Cl)cc1.O=C([O-])C(=O)[O-].O=C([O-])C(=O)[O-].[H+].[Ru+5] | > 100 µM | > 100 µM | > 100 µM | > 100 µM | > 100 µM | > 87.8 µM | > 100 µM | > 100 µM | > 25.4 µM | > 100 µM | – | 8.15 µM | – | 0.023 µM | 1.05 µM | 0.104 µM | 1.44 µM | – | 0.0696 µM | 31.4 µM |
| COC(=O)C1=C(SC)SC2(C(=O)OC)C3C=C(C)C4C(N13)C42C(=O)OC (stereo unspecified) | > 100 µM | > 100 µM | > 100 µM | > 100 µM | > 100 µM | > 100 µM | > 100 µM | > 100 µM | > 100 µM | > 100 µM | – | – | – | – | – | – | – | – | – | – |
| Clc1cc(Cl)c2n[se]nc2c1 | > 100 µM | > 100 µM | > 100 µM | > 100 µM | > 100 µM | > 100 µM | > 100 µM | > 100 µM | > 100 µM | > 100 µM | – | – | – | – | – | – | – | – | – | – |
| COC1=C(NC(C)=O)C(=O)c2nc3n(c2C1=O)CCC3 | 30.4 µM | 38.9 µM | 29.4 µM | > 86.2 µM | > 76 µM | > 30.4 µM | 36.4 µM | 33.5 µM | 40.7 µM | 67.6 µM | – | – | – | – | – | – | – | – | – | – |
| COc1ccc(NC(=O)CC(=O)n2nc(-c3ccccc3)c(N=Nc3ccc(C)cc3)c2-c2ccccc2)cc1 | > 95.8 µM | > 51.4 µM | > 71 µM | 98.3 µM | 66.3 µM | > 100 µM | 45.6 µM | 63.3 µM | 60.9 µM | 49.4 µM | – | – | – | – | – | – | – | – | – | – |

— PubChem BioAssay (NCI)
